Assay results taken from US5900434A, “Method for inhibiting the production of interleukin-1 or tumor necrosis factor-α by administering acanthoic acid” (Korea Institute of Science and Technology, priority 1994, dated 1999).

Columns and labels:
[1] = system: collagen synthesis in rat pulmonary fibroblast; assay: Inhibition of collagen synthesis in rat pulmonary fibroblasts (indirect ELISA); assay type: cell-based; conditions: culture of rat pulmonary fibroblast pretreated with acanthoic acid, silica-stimulated; FIG. 7
Procedure: Fibroblasts were separated from rats by using a modification of the method of Phan, S. H., et al. described in J. Clin. Invest., 76, 241(1985), as follows. A rat was anesthetized with ether and its lungs were isolated on the aseptic worktable. The lungs were cut into small pieces in the size ranging from 2 to 4 mm and suspended in phosphate buffered saline(PBS) containing collagenase and 0.5% trypsin to digest the tissues at 37° C. for 2 hours. The suspension was filtered through sterilized gauze to remove undigested tissues, etc. The separated cells were washed with PBS twice or three times and suspended into RPMI 1640 medium(Gibco, Grand Island, N.Y., U.S.A.) containing 10% fetal bovine serum(FBS, Hyclone, Logan, Utah, U.S.A.). […] For the purpose of confirming the ability of acanthoic acid to suppress the action of IL-1 and TNF-α, its inhibitory effect on the collagen synthesis in rat pulmonary fibroblast and pulmonary tissues was determined. The amount of produced collagen in the culture of rat pulmonary fibroblast was measured by an indirect ELISA method, and that of pulmonary tissue was determined by measuring the concentration of hydroxyproline and calculating the amount of collagen therefrom by using the standard curve of internal control group. […]

[2] = system: rat hepatocirrhosis; assay: CCl4-induced hepatocirrhosis in rat, liver histology; assay type: in vivo, Sprague-Dawley rat; conditions: 0.2 ml orally twice a week, 13 weeks, FIG. 11, E = CCl4 + methanol extract, F = CCl4 + acanthoic acid
Excerpt: Hepatocirrhosis(hepatic sclerosis) is characterized by the fibrosis of whole liver, complete disruption of liver parenchyma by fibrous septa, and formation of regenerative nodules. It is derived mostly from a chronic hepatitis or chronic alcoholism, however, the precise causes thereof are unknown. In a hepatocirrhosis patient, the amount of cytokines, e.g., TNF-α, which is involved in inflammation and fibrosis, is in an increased state; and, therefore, the inhibition of hepatocirrhosis by acanthoic acid may be determined by the inhibitory activity to TNF-α. To induce the experimental hepatocirrhosis in accordance with the method of Nakataukasa, H., et al. as described in J. Clin. Invest., 85, 1833-1843(1990), 1.0 ml/100 g of body weight of CCl4 solution(50% CCl4 +50% corn oil) was injected intraperitoneally to 4 week old male Sprague-Dawley rats twice a week, and 0.2 ml each of methanol extract of A. koreanum Nakai and acanthoic acid was administered orally at the time of the injection of CCl4 twice a week. After 13 weeks from the start of the test, each of the rats was anesthetized with ether and the blood samples were obtained from the heart to determine serum glutamic-oxaloacetic transaminase(sGOT) value and serum glutamic-pyruvic transaminase(sGPT) value(FIG. 10). […]

Structure (SMILES): C=C[C@@]1(C)CC=C2C(CCC3[C@](C)(C(=O)O)CCC[C@@]23C)C1 (single isomer, unassigned; (-)) [acanthoic acid, (-)-pimara-9(11),15-diene-19-oic acid]
- amount of synthesized collagen [1]: decreases significantly
- liver histology, effect on hepatocirrhosis [2]: the inhibitory effect on the hepatocirrhosis is lower than that of E
